These results are taken from patent publication US5589510A, “Method for inhibiting retroviral infection by administering a naphthalenesulfonic acid compound” (priority 1995, dated 1996).

Like-named read-outs stand apart in the source and are kept apart here.

One series has as its system HIV-1 patient isolate IH. In words: Inhibition of HIV-1 patient isolate IH in PBMCs. Particulars: Human immunodeficiency virus 1, PBMC, 288 h, read-out: % Inhibition (after day 12); for inhibition at 5 µg/mL: 5 μg/ml; for inhibition at 10 µg/mL: 10 μg/ml; for inhibition at 20 µg/mL: 20 μg/ml; for inhibition at 2.5 µg/mL: 2.5 μg/ml. Type of series: cell-based. On the procedure: The inhibitory effects of additional naphthalenesulfonic acid compounds were tested as follows: Experimental Details:
PBMCs were activated for 48 hours in conditioned medium containing PHA at a concentration of 4 μg/ml. […] The test compound, previously dissolved in a glucose solution (1 mg/ml), was then added to each of the wells to achieve the appropriate concentration. The plate was then incubated overnight (about 15 hours) after which 50 μl of cell-free HIV-1 patient isolate was added to each well. The plates were incubated for further 6 to 8 hours after which all free floating solution of virus was washed off. Washing was performed four times.
After removal of the virus, all cultures were resuspended in conditioned medium containing 10% FCS.
For control experiments virus growth was monitored in either 10% FCS or 50% FCS throughout the observation period (15 days).

The nature of the next series: LD50, intravenous, mice. Particulars: mouse, in vivo, female mice, mortalities within 1 week. Type of series: in vivo. On the procedure:
The test material was administered intravenously to 5 female mice in five increasing doses. Mortalities were recorded within 1 week, and the LD50 was determined with the aid of statistical calculations.

Series [1] concerns TA98, TA1535, TA1537, TA1538, TA100 and W2P2uvr. As to the kind of experiment: Ames Test (in the presence of S9). Type of series: cell-based, Salmonella typhimurium. An excerpt: Six Salmonella typhimuriumstrai strains, TA98, TA1535, TA1537, TA1538, TA100 and W2P2uvr were used in this experiment.
In the next series the test system is HIV-1 RF. As to the kind of experiment: Antiviral assay, Experimental Protocol I (compound added after infection). Type of series: cell-based. The conditions noted are these: Human immunodeficiency virus 1, 240 h, p24 ELISA, read-out: % Inhibition (after day 10); for inhibition at 0.6 µg/mL: 0.6 μg/ml; for inhibition at 1.25 µg/mL: 1.25 μg/ml; for inhibition at 2.5 µg/mL: 2.5 μg/ml; for inhibition at 5 µg/mL: 5 μg/ml. On the procedure: HIV-1 infectivity studies were conducted in CEM, H9, MT2 cells and peripheral blood mononuclear cells (PBMC). CEM, H9 and MT2 were grown in RPMI1640 medium, 10% heat-inactivated fetal bovine serum (FBS). PBMCs were stimulated with 4 μg/ml PHA for 48 hours in RPMI1640, 10% FBS before HIV-1 infection. After HIV-1 infection, PBMCs were maintained in RPMI 1640, 10% FBS and 10 10 units/ml IL-2. The major HIV-1 isolates used were MN, IIIB, SF2, AZT-sensitive A018 and AZT-resistant A018 provided by NIH AIDS research and reference reagent program. Two major antiviral assays were developed to determine the antiviral activities of the compounds of this invention (as inhibitors).
I. The cells were infected with HIV-1 RF or IIIB at an infectivity multiplicity (moi) of 0.001 in the absence of a compound of this invention for one hour. HIV-1 infected cells were washed once with PBS, resuspended in RPMI1640, 10% FBS medium and distributed in 24-well culture dishes (5×10^5 cells per well) in the presence of a compound of this invention as inhibitor. […]
Background: An ELISA detects its analyte on a solid surface through an enzyme-linked reagent.

For series [2], the target named is T1, recombinant reverse transcriptase (RT) (Human immunodeficiency virus type 1 group M subtype B, UniProt P04585).
T1 construct: purchased Worthington Biochemical Corporation
As to the kind of experiment: Reverse transcriptase inhibition assay. Type of series: biochemical, HIV-1. Particulars: at 0.5 μM. On the procedure: Inhibition of recombinant reverse transcriptase (RT) was performed by using commercially available Boehringer Mannheim RT assay kit (Cat. No. 1468 120) based on incorporation of digoxigenin labeled dUTP into DNA. Recombinant enzyme from HIV-1 was purchased from Worthington Biochemical Corporation. The level of anti-RT activity in the sample was determined by measurement of absorbance using an ELISA reader at 405 nm.

Broadly, the inhibition is the relative decrease from the control value, in per cent. What is called LD50 is the dose expected to kill half of the subjects tested. Low readings indicate a more toxic substance, high ones a less toxic substance. Regarding `COc1cc(N=Nc2c(S(=O)(=O)O)cc3cc(S(=O)(=O)O)cc(NC(=O)c4cccc(Cl)c4Cl)c3c2O)c(OC)cc1N=Nc1c(S(=O)(=O)O)cc2cc(S(=O)(=O)O)cc(NC(=O)COc3ccccc3)c2c1O` [Compound 4], in the series on HIV-1 patient isolate IH (10% FCS), the inhibition at 5 µg/mL was 60%, the inhibition at 10 µg/mL was 88% and the inhibition at 20 µg/mL turned out to be 98%. In addition, in “LD50, intravenous, mice”, the LD50 at 168 h worked out at 160 mg/kg. Moreover, the “Ames Test result” value in series [1] is on record as “Negative”.

On to `COc1cc(N=Nc2c(S(=O)(=O)O)cc3cc(S(=O)(=O)O)cc(NC(=O)c4ccccc4)c3c2O)c(OC)cc1N=Nc1c(S(=O)(=O)O)cc2cc(S(=O)(=O)O)cc(NC(C)=O)c2c1O` [Compound 5], for which, in the series with HIV-1 patient isolate IH (10% FCS), the inhibition at 5 µg/mL was found to be 45%, the inhibition at 10 µg/mL turned out to be 77% and the inhibition at 20 µg/mL was determined as 77%. The compound also registered an LD50 at 168 h in the series “LD50, intravenous, mice” of 120 mg/kg. Also, in the series on HIV-1 RF (10% FCS), the inhibition at 0.6 µg/mL amounted to 45%, the inhibition at 1.25 µg/mL is 87%, the inhibition at 2.5 µg/mL worked out at 100% and the inhibition at 5 µg/mL is 100%. The “Ames Test result” value in series [1] is listed as “Negative”.

Regarding `COc1cc(N=Nc2c(S(=O)(=O)O)cc3cc(S(=O)(=O)O)cc(NC(=O)c4ccc(Cl)c(Cl)c4)c3c2O)c(OC)cc1N=Nc1c(S(=O)(=O)O)cc2cc(S(=O)(=O)O)cc(NC(=O)c3ccc(Cl)c(Cl)c3)c2c1O` [Compound 10], the LD50 at 168 h in “LD50, intravenous, mice” is 140 mg/kg. Besides, the inhibition at 0.5 µM in series [2] was determined as 55%. Besides, the “Ames Test result” value in series [1] was “Negative”.

Consider `COc1cc(N=Nc2c(S(=O)(=O)O)cc3cc(S(=O)(=O)O)cc(NC(=O)c4cc(Cl)ccc4Cl)c3c2O)c(OC)cc1N=Nc1c(S(=O)(=O)O)cc2cc(S(=O)(=O)O)cc(NC(=O)c3ccc(Cl)c(Cl)c3)c2c1O` [Compound 12], for which, in the series on HIV-1 patient isolate IH (10% FCS), the inhibition at 2.5 µg/mL turned out to be 0%, the inhibition at 5 µg/mL worked out at 85%, the inhibition at 10 µg/mL turned out to be 100% and the inhibition at 20 µg/mL worked out at 100%. Besides, in the series with HIV-1 patient isolate IH (50% Human Serum), the inhibition at 2.5 µg/mL came out at 0%, the inhibition at 5 µg/mL is 0%, the inhibition at 10 µg/mL is 90% and the inhibition at 20 µg/mL is 93%. In “LD50, intravenous, mice”, this compound came in with an LD50 at 168 h of 190 mg/kg. The inhibition at 0.3 µg/mL with HIV-1 RF (10% FCS, 0.3 μg/ml) was 86%. Also, in the series on HIV-1 RF (10% FCS), the inhibition at 0.6 µg/mL stood at 96%, the inhibition at 1.25 µg/mL came to 99%, the inhibition at 2.5 µg/mL was determined as 100% and the inhibition at 5 µg/mL is 100%. For the same compound, in the series with HIV-1 RF (50% Human Serum), the inhibition at 0.6 µg/mL was 0%, the inhibition at 1.25 µg/mL is 0%, the inhibition at 2.5 µg/mL is 40% and the inhibition at 5 µg/mL was 93%. In series [1], the “Ames Test result” value is listed as “Negative”.

As for `COc1cc(N=Nc2c(S(=O)(=O)O)cc3cc(S(=O)(=O)O)cc(NC(=O)c4cccc5ccccc45)c3c2O)c(OC)cc1N=Nc1ccc2cc(S(=O)(=O)O)cc(NC(=O)c3ccccc3)c2c1O` [Compound 13], in the series on HIV-1 patient isolate IH (10% FCS), the inhibition at 5 µg/mL was found to be 55%, the inhibition at 10 µg/mL amounted to 70% and the inhibition at 20 µg/mL came out at 100%. Moreover, the LD50 at 168 h in the series “LD50, intravenous, mice” amounted to 160 mg/kg. Besides, the “Ames Test result” value in series [1] is “Negative”.

With `COc1cc(N=Nc2c(S(=O)(=O)O)cc3cc(S(=O)(=O)O)cc(NC(=O)c4cccc(Cl)c4Cl)c3c2O)c(OC)cc1N=Nc1c(S(=O)(=O)O)cc2cc(S(=O)(=O)O)cc(NC(=O)c3ccccc3Cl)c2c1O` [Compound 21], in the series with HIV-1 patient isolate IH (10% FCS), the inhibition at 2.5 µg/mL turned out to be 0%, the inhibition at 5 µg/mL stood at 23%, the inhibition at 10 µg/mL is 77% and the inhibition at 20 µg/mL is 100%. Further, in the series with HIV-1 patient isolate IH (50% Human Serum), the inhibition at 2.5 µg/mL is 10%, the inhibition at 5 µg/mL is 23%, the inhibition at 10 µg/mL came to 61% and the inhibition at 20 µg/mL stood at 100%. Moreover, in “LD50, intravenous, mice”, the LD50 at 168 h is 160 mg/kg. Moreover, the “Ames Test result” value in series [1] is recorded as “Negative”.
